Assay results from patent US20210386367A1, “DEVICES AND SYSTEMS FOR GASTROINTESTINAL MICROBIOME DETECTION AND MANIPULATION” (Progenity, Inc., priority 2018, published 2021).
In brackets after ≈: the same amount, converted by molar mass.

What was measured:
[1] = system: Streptococcus spp. spontaneous mutants; details: S. pneumoniae ATCC 49619; CLSI QC range shown in parentheses; cited from earlier work
[2] = system: Streptococcus spp. spontaneous mutants; experiment: organism not typed; format: cell-based
Experimental: Select isolates were subcultured onto agar containing drug at the selection concentration, were identified by MALDI, and were frozen for broth microdilution MIC testing as described below.
To determine whether colonies growing on drug selection plates had elevated MIC values to the selecting antibiotic, susceptibility testing by broth microdilution was conducted on isolated mutants following methodology recommended by CLSI (1), (2), and (3) “Performance Standards for Antimicrobial Susceptibility Testing; Twenty-Eighth Informational Supplement.,” CLSI document M100-S28, 2018.
All wells in columns 2 through 12 of a standard 96-well microdilution plate (Costar 3795) were filled with 150 μL of the appropriate diluent. Then, 300 μL of the test agents were added to the wells of column 1 of the plates at […] the highest final concentration to be tested. Serial two-fold dilutions were made across the rows through column 11 using the Biomek 2000. The wells of column 12 contained no drug and served as the growth control wells. This plate served as the “mother plate” from which selected MIC assay plates or “daughter plates” were made.
2 μL of drug solution from each well of a mother plate was added to each corresponding well of the daughter plate in a single step. A standardized inoculum of each aerobic test organism was prepared per CLSI methods to equal a 0.5 McFarland standard, followed by a dilution of 1:20 in MHB II. The plates were then inoculated with 10 μL of the diluted inoculum using the Biomek 2000 from low to high drug concentration, resulting in a final concentration of approximately 5×10^5 CFU/mL. An un-inoculated plate was incubated for the purpose of assessing solubility of the drug in the test media.
The plates for the aerobic tests were stacked 3-4 high, covered with a sterile lid on the top plate, and incubated aerobically at 35° C. for 18-20 hr. The MIC was recorded as the lowest concentration of drug that inhibited visible growth of the organism.

CC[C@H]1OC(=O)[C@H](C)[C@@H](O[C@H]2C[C@@](C)(OC)[C@@H](O)[C@H](C)O2)[C@H](C)[C@@H](O[C@@H]2O[C@H](C)C[C@H](N(C)C)[C@H]2O)[C@](C)(O)C[C@@H](C)CN(C)[C@H](C)[C@@H](O)[C@]1(C)O [AZI]
MIC, CLSI QC range [1]: (0.06-0.25) μg/mL
MIC ([2]; S. agaloctiae ATCC 13813, selected on rifaximin 4X MIC, Colony A): 0.015 µg/mL (≈ 0.02 µM)
MIC ([2]; S. agaloctiae ATCC 13813, selected on rifaximin 4X MIC, Colony B): 0.015 µg/mL (≈ 0.02 µM)
MIC ([2]; S. agaloctiae ATCC 13813, selected on rifaximin 8X MIC, Colony A): 0.015 µg/mL (≈ 0.02 µM)
MIC ([2]; S. agaloctiae ATCC 13813, selected on rifaximin 8X MIC, Colony B): 0.015 µg/mL (≈ 0.02 µM)
MIC ([2]; S. agaloctiae ATCC 13813 Parent): 0.015 µg/mL (≈ 0.02 µM)
MIC ([2]; S. pneumoniae ATCC 49619, selected on rifaximin 4X MIC, Colony A): 0.03 µg/mL (≈ 0.0401 µM)
MIC ([2]; S. pneumoniae ATCC 49619, selected on rifaximin 4X MIC, Colony B): 0.03 µg/mL (≈ 0.0401 µM)
MIC ([2]; S. pneumoniae ATCC 49619, selected on rifaximin 8X MIC, Colony A): 0.03 µg/mL (≈ 0.0401 µM)
MIC ([2]; S. pneumoniae ATCC 49619, selected on rifaximin 8X MIC, Colony B): 0.03 µg/mL (≈ 0.0401 µM)
MIC ([2]; S. pneumoniae ATCC 49619 Parent): 0.06 µg/mL (≈ 0.0801 µM)
MIC ([2]; S. pyogenes ATCC 49399, selected on rifaximin 4X MIC, Colony A): 0.06 µg/mL (≈ 0.0801 µM)
MIC ([2]; S. pyogenes ATCC 49399, selected on rifaximin 4X MIC, Colony B): 0.06 µg/mL (≈ 0.0801 µM)
MIC ([2]; S. pyogenes ATCC 49399, selected on rifaximin 8X MIC, Colony A): 0.06 µg/mL (≈ 0.0801 µM)
MIC ([2]; S. pyogenes ATCC 49399, selected on rifaximin 8X MIC, Colony B): 0.06 µg/mL (≈ 0.0801 µM)
MIC ([2]; S. pyogenes ATCC 49399 Parent): 0.03 µg/mL (≈ 0.0401 µM)
